This note sets out measurements from ChEMBL document CHEMBL5233262, “Anti-inflammatory activity of naturally occuring diarylheptanoids - A review” (Bioorg Med Chem, 2021).

Each structure is given as a SMILES string. In brackets after ≈: the same amount, converted by molar mass.

One test deals with Zingiber officinale. The test is described as follows: Inhibition of prostaglandin biosynthesis in ginger. The format is functional, organism-based.
A further test concerns Mus musculus. The test is described as follows: Antiinflammatory activity in ICR mouse model of TPA-induced ear edema assessed as inhibition of ear inflammation at 20 uM,TOP for 30 mins followed by TPA addition and measured after 5 hrs. The format is functional. The following applies: 5.5 h, time 330 min.
Test [1] is described as follows: Inhibition of COX in bovine seminal vesicle assessed as reduction in PGE2 production using arachidonic acid as substrate. The class given is tissue-based, Bos taurus.
Test [2] has as its system HUVEC. The test is described as follows: Antiinflammatory activity in human HUVEC cells assessed as inhibition of TNFalpha-induced VCAM-1 expression at 1 to 50 uM preincubated for 2 hrs followed by TNFalpha stimulation and measured after 8 hrs by ELISA. The class given is functional. The following applies: dose 1-50 µM, time 10 hrs. (In general: ELISA stands for enzyme-linked immunosorbent assay.)

Test [3] deals with HUVEC. The test is described as follows: Antiinflammatory activity in human HUVEC cells assessed as inhibition of IL-1beta induced VCAM-1 expression at 1 to 50 uM preincubated for 2 hrs followed by IL-1beta stimulation and measured after 8 hrs by ELISA. The class given is functional. The following applies: dose 1-50 µM, time 10 hrs.
For test [4], the system named is HUVEC. Nature of the test: Antiinflammatory activity in human HUVEC cells assessed as inhibition of IL-1beta induced ICAM-1 expression at 1 to 50 uM preincubated for 2 hrs followed by IL-1beta stimulation and measured after 8 hrs by ELISA. The class given is functional. The following applies: dose 1-50 µM, time 10 hrs.
Test [5] addresses T1, Polyunsaturated fatty acid 5-lipoxygenase (Homo sapiens, UniProt P09917).
T1 sequence (P09917 whole entry): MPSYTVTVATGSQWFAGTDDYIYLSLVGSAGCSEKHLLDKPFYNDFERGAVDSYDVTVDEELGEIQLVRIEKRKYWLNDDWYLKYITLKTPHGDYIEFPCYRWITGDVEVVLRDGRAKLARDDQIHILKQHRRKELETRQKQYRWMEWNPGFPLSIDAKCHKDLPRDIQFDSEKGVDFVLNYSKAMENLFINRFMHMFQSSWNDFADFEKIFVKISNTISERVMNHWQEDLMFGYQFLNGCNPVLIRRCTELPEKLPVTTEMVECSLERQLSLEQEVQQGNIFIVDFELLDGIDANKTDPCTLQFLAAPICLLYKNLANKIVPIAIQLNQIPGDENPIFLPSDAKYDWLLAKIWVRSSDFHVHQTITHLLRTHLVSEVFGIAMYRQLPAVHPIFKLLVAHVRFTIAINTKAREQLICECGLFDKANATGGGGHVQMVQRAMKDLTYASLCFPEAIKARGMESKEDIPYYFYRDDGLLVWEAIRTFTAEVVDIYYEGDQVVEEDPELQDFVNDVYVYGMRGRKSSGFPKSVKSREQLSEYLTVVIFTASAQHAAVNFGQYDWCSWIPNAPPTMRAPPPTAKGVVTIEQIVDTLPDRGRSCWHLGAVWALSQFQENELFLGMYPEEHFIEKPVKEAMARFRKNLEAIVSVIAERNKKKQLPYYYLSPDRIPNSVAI
Nature of the test: Inhibition of 5-LOX in human neutrophils assessed as reduction in 5-HETE formation preincubated for 5 mins followed by arachidonic acid and A23187 addition and measured after 5 mins by RP-HPLC analysis. The class given is cell-based, Neutrophil.

The subject of test [6] is HUVEC. Nature of the test: Antiinflammatory activity in human HUVEC cells assessed as inhibition of TNFalpha-induced ICAM-1 expression at 1 to 50 uM preincubated for 2 hrs followed by TNFalpha stimulation and measured after 8 hrs by ELISA. The format is functional. The following applies: dose 1-50 µM, time 10 hrs.
The subject of test [7] is J774.A1. The test is described as follows: Antiinflammatory activity in mouse J774.A1 cells assessed as inhibition of LPS-induced NO production incubated for 24 hrs by Griess reagent based analysis. The format is functional, cell-based. The following applies: J774.A1, 24 h. On the technique in general: The Griess reaction detects nitrite, a stable product of nitric oxide.

Test [8] can be described thus: Antioxidant activity assessed as ABTS radical scavenging activity measured after 6 mins. The class given is functional.
Test [9] is described as follows: Antioxidant activity assessed as hydroxyl radical scavenging activity. The format is functional.
Test [10] is described as follows: Antioxidant activity assessed as DPPH radical scavenging activity. The class given is functional. (In general: The DPPH test is a chemical assay of radical scavenging.)
The nature of test [11]: Antioxidant activity assessed as DPPH radical scavenging activity incubated for 30 mins by spectrophotometric analysis. The format is functional.
Test [12] has as its system RAW264.7. Nature of the test: Antiinflammatory activity against mouse RAW264.7 cells assessed as inhibition of IFN-gamma and LPS-induced COX2 production preincubated for 2 hrs followed by IFN-gamma and LPS stimulation and measured after 16 hrs by spectrophotometric analysis. The format is functional, cell-based.
Test [13] concerns RAW264.7. Nature of the test: Antiinflammatory activity in mouse RAW264.7 cells assessed as inhibition of LPS-induced NO production preincubated for 0.5 hrs followed by LPS stimulation and measured after 24 hrs by Griess reagent based analysis. The class given is functional, cell-based.
Test [14] has as its system J774.A1. The test is described as follows: Antiinflammatory activity in mouse J774.A1 cells assessed as inhibition of LPS-induced IL-6 production at 10 microg/ml preincubated for 30 mins followed by LPS stimulation and measured after 2 hrs by Griess reagent based analysis. The following applies: J774.A1, 2.5 h, time 150 min. The format is functional.
In test [15] the test system is RAW264.7. The test is described as follows: Antiinflammatory activity in mouse RAW264.7 cells assessed as inhibition of IFN-gamma and LPS-induced NO production incubated for 24 hrs by Griess assay. The class given is functional, cell-based. The following applies: RAW264.7, 24 h.
The subject of test [16] is J774.A1. The test is described as follows: Antiinflammatory activity in mouse J774.A1 cells assessed as inhibition of LPS-induced TNF-alpha production at 10 microg/ml preincubated for 30 mins followed by LPS stimulation and measured after 2 hrs by Griess reagent based analysis. The format is functional. The following applies: J774.A1, 2.5 h, time 150 min.

In the case of `COc1cc(/C=C/C(=O)CCCCc2ccccc2)ccc1O`, the results for the IC50 (in the test with Zingiber officinale; in test [1]; in [5]) were 2.3 µM, 23 µM and 4 µM, respectively. Besides, the inhibition in vivo (usually the drop in the measured response relative to a control, in per cent) at 20 µM with Mus musculus worked out at 52%. Further, the “inhibition (INH)” value with HUVEC [2], in the test on HUVEC [3], in the test on HUVEC [4] and with HUVEC [6] was 0% each time.
On to `O=C1O[C@H]([C@@H](O)CO)C(O)=C1O` [ASCORBIC ACID], for which the concentration for half-maximal inhibition (IC50) – broadly, the concentration that gives 50% inhibition – with J774.A1 [7] is above 100 µM; in [8], 23.3 µM; in [9], 47 µg/mL (≈ 267 µM); in [10], 58 µg/mL (≈ 329 µM); in test [11], 24.8 µM.
Regarding `O=C(CCc1ccc(O)c(O)c1)C[C@H](CCc1ccc(O)c(O)c1)O[C@@H]1O[C@H](CO)[C@@H](O)[C@H](O)[C@H]1O`, the IC50 with RAW264.7 [12] amounted to 33.7 µg/mL (≈ 66.3 µM); in the test with RAW264.7 [13], 10 µM; in the test with RAW264.7 [15], 29.4 µg/mL (≈ 57.8 µM). Besides, the inhibition (in general, the drop in the measured response relative to a control, in per cent) at 10 µg/mL was 75% with J774.A1 [14] and 51% in the test with J774.A1 [16].
